Results published in ChEMBL document CHEMBL1212787, “Antimicrobial peptide hLF1-11 directs granulocyte-macrophage colony-stimulating factor-driven monocyte differentiation toward macrophages with enhanced recognition and clearance of pathogens” (2010).
Activity calls are given as the source filed them. The calls are words filed in the database; no cut-off is given here.

Columns and labels:
[1] = tested on: Macrophage; assay: Modulation of GM-CSF-driven human macrophage differentiation assessed as induction of LPS-stimulated IL-10 production in at 1 to 100 ug/ml after 20 hrs; type: functional, cell-based
[2] = tested on: Macrophage; assay: Modulation of GM-CSF-driven human macrophage differentiation assessed as induction of LPS-stimulated IL-12p40 production in at 1 to 100 ug/ml after 20 hrs; type: functional, cell-based
[3] = tested on: Macrophage; assay: Modulation of GM-CSF-driven human macrophage differentiation assessed as induction of LPS-stimulated TNFalpha production in at 1 to 100 ug/ml after 20 hrs; type: functional, cell-based
[4] = tested on: Macrophage; assay: Modulation of GM-CSF-driven human macrophage differentiation assessed as induction of LTA-stimulated IL-10 production in at 1 to 100 ug/ml after 20 hrs; type: functional, cell-based
[5] = tested on: Macrophage; assay: Modulation of GM-CSF-driven human macrophage differentiation assessed as induction of LTA-stimulated IL-12p40 production in at 1 to 100 ug/ml after 20 hrs; type: functional, cell-based
[6] = tested on: Macrophage; assay: Modulation of GM-CSF-driven human macrophage differentiation assessed as induction of LTA-stimulated TNFalpha production in at 1 to 100 ug/ml after 20 hrs; type: functional, cell-based
[7] = tested on: Macrophage; assay: Modulation of GM-CSF-driven human macrophage differentiation assessed as induction of heat killed Candida albicans-stimulated IL-10 production in at 1 to 100 ug/ml after 20 hrs; type: functional, cell-based
[8] = tested on: Macrophage; assay: Modulation of GM-CSF-driven human macrophage differentiation assessed as induction of heat killed Candida albicans-stimulated IL-12p40 production in at 10 ug/ml after 20 hrs; type: functional, cell-based
[9] = tested on: Macrophage; assay: Modulation of GM-CSF-driven human macrophage differentiation assessed as induction of heat killed Candida albicans-stimulated TNFalpha production in at 1 to 100 ug/ml after 20 hrs; type: functional, cell-based
[10] = tested on: Macrophage; assay: Modulation of GM-CSF-driven human macrophage differentiation assessed as induction of 0.1 ng/ml LPS-stimulatedIL-10 production at 100 ug/ml after 20 hrs; type: functional, cell-based
[11] = tested on: Macrophage; assay: Modulation of GM-CSF-driven human macrophage differentiation assessed as induction of CD14 expression in at 100 ug/ml after 7 days by flow cytometry; type: functional, cell-based
[12] = Modulation of GM-CSF-driven human macrophage differentiation assessed as induction of TLR4 expression in at 100 ug/ml after 7 days by flow cytometry; type: functional, cell-based
[13] = tested on: Macrophage; assay: Modulation of GM-CSF-driven human macrophage differentiation assessed as induction of 10 ng/ml LTA-stimulatedMCP1 production at 100 ug/ml after 20 hrs; type: functional, cell-based
[14] = tested on: Macrophage; assay: Modulation of GM-CSF-driven human macrophage differentiation assessed as induction of 1 ng/ml LTA-stimulatedMCP1 production at 100 ug/ml after 20 hrs; type: functional, cell-based
[15] = Modulation of GM-CSF-driven human macrophage differentiation assessed as induction of TLR2 expression in at 100 ug/ml after 7 days by flow cytometry; type: functional, cell-based
[16] = tested on: Macrophage; assay: Modulation of GM-CSF-driven human macrophage differentiation assessed as induction of 1x10^6 CFU heat-killed Candida albicans cells-stimulated TNF-alpha production at 100 ug/ml after 20 hrs; type: functional, cell-based
[17] = Modulation of GM-CSF-driven human macrophage differentiation assessed as induction of dectin-1 expression at 100 ug/ml after 7 days by flow cytometry; type: functional, cell-based
[18] = tested on: Macrophage; assay: Modulation of GM-CSF-driven human macrophage differentiation assessed as induction of CD206 expression at 100 ug/ml after 7 days by flow cytometry; type: functional, cell-based
[19] = tested on: Macrophage; assay: Modulation of GM-CSF-driven human macrophage differentiation assessed as induction of CD11b expression at 100 ug/ml after 7 days by flow cytometry; type: functional, cell-based
[20] = tested on: Candida albicans; assay: Antimicrobial activity against Candida albicans infected in human macrophage assessed as fungus phagocytosing compound-treated macrophages at 15 mins by FACS analysis (reference value: 13%); type: functional
[21] = tested on: Candida albicans; assay: Antimicrobial activity against Candida albicans infected in human macrophage assessed as fungus phagocytosing compound-treated macrophages at 30 mins by FACS analysis (reference value: 28%); type: functional
[22] = tested on: Staphylococcus aureus; assay: Antimicrobial activity against Staphylococcus aureus LUH2141 infected in human macrophage assessed as bacteria phagocytosing macrophages at 60 mins by FACS analysis (reference value: 30%); type: functional
[23] = tested on: Staphylococcus aureus; assay: Antimicrobial activity against Staphylococcus aureus LUH2141 infected in human macrophage assessed as bacteria phagocytosing macrophages at 120 mins by FACS analysis (reference value: 66%); type: functional
[24] = tested on: Candida albicans; assay: Antimicrobial activity against Candida albicans infected in human macrophage assessed as fungal clearance at 60 mins by FACS analysis (reference value: 56%); type: functional, organism-based
[25] = tested on: Staphylococcus aureus; assay: Antimicrobial activity against Staphylococcus aureus LUH2141 infected in human macrophage at 60 mins by FACS analysis (reference value: 9%); type: functional, organism-based
[26] = tested on: Staphylococcus aureus; assay: Antimicrobial activity against Staphylococcus aureus LUH2141 infected in human macrophage at 120 mins by FACS analysis (reference value: 17%); type: functional, organism-based
[27] = tested on: Monocyte; assay: Modulation of GM-CSF-driven human monocytes differentiation assessed as induction of LPS-induced IL-10 production after 10 mins; type: functional, cell-based
[28] = tested on: Monocyte; assay: Modulation of GM-CSF-driven human monocytes differentiation assessed as induction of LPS-induced IL-10 production after 60 mins; type: functional, cell-based
[29] = tested on: Monocyte; assay: Modulation of GM-CSF-driven human monocytes differentiation assessed as induction of LPS-induced IL-10 production after 7 days; type: functional, cell-based
[30] = tested on: Candida albicans; assay: Antimicrobial activity against Candida albicans infected in human macrophage assessed as induction of phagocytosis of fungus after 10 mins by flow cytometry; type: functional, organism-based
[31] = tested on: Candida albicans; assay: Antimicrobial activity against Candida albicans infected in human macrophage assessed as induction of phagocytosis of fungus after 60 mins by flow cytometry; type: functional, organism-based
[32] = tested on: Candida albicans; assay: Antimicrobial activity against Candida albicans infected in human macrophage assessed as fungus phagocytosing compound-treated macrophages at 60 mins by FACS analysis (reference value: 47%); type: functional

Q: What does the source list for H-GRRRRSVQWCA-OH?
A: Activity [1]: Active; Activity [2]: inactive; Activity [3]: inactive; Activity [4]: Active; Activity [5]: Active; Activity [6]: inactive; Activity [7]: Active; Activity [8]: Active; Activity [9]: Active; Activity [10]: Active; Activity [11]: Active; Activity [12]: Active; Activity [13]: Active; Activity [14]: Active; Activity [15]: inactive; Activity [16]: Active; Activity [17]: Active; Activity [18]: Active; Activity [19]: inactive; Activity [20]: 22%; Activity [21]: 41%; Activity [22]: 49%; Activity [23]: 72%; Activity [24]: Active; Activity [25]: Active; Activity [26]: Active; Activity [27]: inactive; Activity [28]: Active; Activity [29]: Active; Activity [30]: inactive; Activity [31]: Active; Activity [32]: 54%
